The test system of this data set is Rattus norvegicus. As to conditions: oral.
[1] abbreviates: subchronic, gavage, M, Sprague-Dawley, Clinical Observation: Soft stool + Urinalysis: pH decrease(trend)Phosphate crystal (grade, frequency) decrease + Histopathology: Stomach-….
Setting [2] is: short-term, duration: 28 days, gavage, M, Sprague-Dawley, Clinical Observation: Yellow-orange urine Soft stool DiarrheaSalivation + Body Weight Changes: decrease + Food Consumption: decrease + ….
Setting [3] is: subchronic, gavage, M, Sprague-Dawley, Absolute Organ Weight: Seminal vesicle increase, Prostate increase + Relative Organ Weight: Seminal vesicle increase, Prostate increase.
[4] abbreviates: subchronic, gavage, M, Sprague-Dawley, Water Consumption: increase + Urinalysis: Osmotic pressure decrease, Volume increase, R.
The mark [5] stands for this setting: short-term, duration: 28 days, gavage, F, Sprague-Dawley, Deaths + Clinical Observation: Locomotor activity decrease, Abnormal respiratory sound Deep respiration Pale skin Hypothermia Ptosis ….
Setting [6] is: short-term, duration: 28 days, gavage, M, Sprague-Dawley, Deaths + Clinical Observation: Locomotor activity decrease, Abnormal respiratory sound Deep respiration Pale skin Hypothermia Ptosis ….

This is an account of results in EPA's ToxValDB 9.5.

One may read the NOAEL as the highest dose or exposure tested at which no adverse effect was seen. Consider `CCC(C)c1cc(C(C)(C)C)cc(-n2nc3ccccc3n2)c1O` (stereo unspecified) [2-(2H-Benzotriazol-2-yl)-6-(butan-2-yl)-4-tert-butylphenol], for which the NOAEL (subchronic, duration: 42 days, gavage, M, Sprague-Dawley, Hematology: HGB decrease + Blood Chemistry: TP increase, Alb increase, A/G increase, ALP increase, ChE increase + Absolute Organ Weight: …) stood at 4 mg/kg-day. Besides, under “subchronic, gavage, M, Sprague-Dawley, Blood Chemistry: TG decrease PL decrease Alb increase A/G increase Alp increase + Absolute Organ Weight: Liver increase + Relative Organ …”, the NOEL was below 0.5 mg/kg-day.
With `O=[N+]([O-])c1ccc(Nc2ccc(Nc3ccccc3)c(S(=O)(=O)[O-])c2)c([N+](=O)[O-])c1.[Na+]` [C.I. Acid Orange 3], the NOEL (subchronic, duration: 13 weeks, gavage, M/F, Fischer 344, Deaths + Body Weight Changes: decrease + Histopathology: Kidney-Nephrosis Kidney-Suppurative inflammation Kidney/Renal papilla - Necrosis …) was 750 mg/kg-day.
With `CC[Si](Cl)(Cl)Cl` [Ethyl silicon trichloride], the NOAEL (short-term, duration: 28 days, gavage, M/F, Wistar, Clinical Observation: Staggering gait + Body Weight Changes: decrease + Relative Organ Weight: Liver increase, (Low and middle doses were …) was 250 mg/kg-day.
Turning to `COc1ccccc1OCCNCC(O)COc1cccc2[nH]c3ccccc3c12` (stereo unspecified) [Carvedilol], the NOEL (chronic, duration: 91 days, gavage, M/F, Wistar, Deaths + Clinical Observation: Salivation Lacrimation Ptosis Locomotor activity decrease + Body Weight Changes: Body weight gain decrease + …) turned out to be 30 mg/kg-day.
As for `CCC(Cl)C(Cl)C(Cl)CC(Cl)C(Cl)C(C)Cl` (stereo unspecified) [C10-12 chloroalkanes], where the note is “subchronic, duration: 13 weeks, gavage, M/F, Fischer 344, Clinical Observation: Inactive + Body Weight Changes: decrease + Relative Organ Weight: Liver increase + Histopathology: Liver-Hypertrophy, …”, the NOEL was below 313 mg/kg-day.
With `N#CC(Cl)(Cl)Cl` [Trichloroacetonitrile], the NOEL (short-term, duration: 28 days, gavage, M/F, Clinical Observation: Salivation Locomotor activity decrease, Bradypnea Ptosis Flushing of auricle Staggering gait + Body Weight Changes: …) is 40 mg/kg-day.
Consider `CC(C)OC(=O)C(C)(C)Oc1ccc(C(=O)c2ccc(Cl)cc2)cc1` [Fenofibrate], for which, where the note is “chronic, duration: 91 days, gavage, M/F, CD, Body Weight Changes: decrease + Food Consumption: decrease + Urinalysis: WBCEpithelial cell + Hematology: RBC decrease, HCT decrease, HGB …”, the NOAEL stood at 5 mg/kg-day.
For the molecule `CCOP(OCC)OCC` [Triethyl phosphite], the no-observed-adverse-effect level (NOAEL) (subchronic, duration: 32 days, gavage, M/F, Deaths + Clinical Observation: Impaired general condition Emaciation Unkempt fur + Body Weight Changes: Weight gain decrease + Food …) came out at 150 mg/kg-day.
With `CCCCC(CC)(CO)CO` [2-Butyl-2-ethyl-1,3-propanediol], the NOAEL (subchronic, gavage, M, Sprague-Dawley, Clinical Observation: Staggering gait + Water Consumption: increase + Urinalysis: pH decrease + Hematology: LYMPH increase, NEUT decrease + …) was found to be 20 mg/kg-day.
As for `CCc1ccccc1N` [2-Ethylaniline], where the note is “subchronic, duration: 42 days, gavage, M, CD(SD), Hematology: RBC decrease, HGB decrease, MCV increase, MCH increase, MCHC decrease, RET increase + Blood Chemistry: Alb increase A/G …”, the NOEL was found to be 3 mg/kg-day.
Regarding `Nc1ccccc1Cl` [2-Chloroaniline], the NOEL (subchronic, gavage, M/F, Fischer 344, Deaths + Clinical Observation: Tremors Wasting Bluish discoloration of genital and footpad regions + Body Weight Changes: decrease + …) is below 10 mg/kg-day.
`COc1cc(S(=O)(=O)CCOS(=O)(=O)O)c(C)cc1N`: under “short-term, duration: 28 days, gavage, M, Absolute Organ Weight: Liver increase + Histopathology: Kidney-Eosinophilic droplet, tubular epithelium”, the NOEL was 30 mg/kg-day.
Consider `CCCC[B-](c1ccccc1)(c1ccccc1)c1ccccc1.CCCC[N+](CCCC)(CCCC)CCCC` [Tetrabutylammonium butyltriphenylborate], for which the NOEL (short-term, duration: 28 days, gavage, M/F, Blood Chemistry: GPT increase, CHE decrease + Histopathology: Thymus-Proliferation, histiocyte Thymus-Atrophy Adrenal-Decreased lipoid) is below 3 mg/kg-day.
In the case of `CC(C)Nc1ccc(NC(C)C)c2c1C(=O)c1ccccc1C2=O` [1,4-Bis(N-isopropylamino)anthraquinone], for the setting “subchronic, duration: 42 days, gavage, M, CD(SD), Clinical Observation: Dark purple feces Purple urine Purple colored skin + Urinalysis: Lite purple colored urine Purple colored urine + …”, the NOEL was 12 mg/kg-day.
For the molecule `CC(=O)O.O=C(NCC1CCCCN1)c1cc(OCC(F)(F)F)ccc1OCC(F)(F)F` (stereo unspecified) [Flecainide acetate], the NOAEL by setting is: (chronic, duration: 91 days, gavage, F, Sprague-Dawley, Deaths + Clinical Observation: Patchy hair loss Salivation + Water Consumption: increase + Urinalysis: Volume increase, Protein decrease + …) 20 mg/kg-day; (chronic, duration: 91 days, gavage, M, Sprague-Dawley, Deaths + Clinical Observation: Patchy hair loss Salivation + Water Consumption: increase + Urinalysis: Volume increase, Protein decrease + …) 10 mg/kg-day.
Take `O=C(O)c1cc(C(=O)O)c(C(=O)O)cc1C(=O)O` [Pyromellitic acid]: under setting [1], the LOEL turned out to be 100 mg/kg-day and the NOEL is below 100 mg/kg-day.
For `Fc1ccc(Br)cc1F` [4-Bromo-1,2-difluorobenzene], the NOEL (short-term, duration: 28 days, gavage, M/F, Deaths + Clinical Observation: Locomotor activity decrease, Salivation Paleness of Auricle + Body Weight Changes: Gain decrease + …) worked out at 20 mg/kg-day.
For `CCCN(CCC)S(=O)(=O)c1ccc(C(=O)O)cc1` [Probenecid], the NOEL (subchronic, duration: 13 weeks, gavage, M/F, Fischer 344, Clinical Observation: Yellow-brown staining of the perineum + Body Weight Changes: decrease + Absolute Organ Weight: Liver increase, Right …) is below 50 mg/kg-day.
Take `CN(C)c1cccc(C(=O)O)c1` [Benzoic acid, 3-(dimethylamino)-]: the NOEL (subchronic, gavage, M, Sprague-Dawley, Clinical Observation: Salivation + Blood Chemistry: Bil increase, Cl decrease + Relative Organ Weight: Heart increase) was determined as 200 mg/kg-day.
Regarding `Nc1cc([N+](=O)[O-])ccc1O` [2-Amino-4-nitrophenol], under setting [2], the NOAEL was below 150 mg/kg-day. For the same molecule, the NOEL was below 150 mg/kg-day under setting [2] and 125 mg/kg-day (subchronic, duration: 13 weeks, gavage, M/F, Fischer 344, Deaths + Body Weight Changes: decrease + Absolute Organ Weight: Liver increase + Relative Organ Weight: Liver increase + Histopathology: …).
Consider `CSCCC=O` [3-(Methylthio)propanal], for which the NOAEL (short-term, duration: 28 days, gavage, M/F, Wistar, Body Weight Changes: Mean body weight decrease, Weight gain decrease + Hematology: RBC decrease, HGB decrease + Blood Chemistry: T-Bil …) is 104 mg/kg-day.
Consider `O=C1c2ccccc2C(=O)N1SC(F)(Cl)Cl` [Fluorofolpet], for which, for the setting “short-term, duration: 28 days, gavage, M/F, Wistar, Deaths + Clinical Observation: Nasal noise Diarrhea + Body Weight Changes: Weight gain decrease + Food Consumption: decrease + Water …”, the NOEL was below 20 mg/kg-day.
Consider `CC(C)(C)c1cc(-n2nc3ccc(Cl)cc3n2)c(O)c(C(C)(C)C)c1`, for which the NOAEL (subchronic, duration: 42 days, gavage, M, CD(SD), Hematology: RBC decrease, NEUT increase, APTT decrease + Blood Chemistry: ALB increase, A/G increase, ALP increase, T-BIL decreasea2-GLOB …) is 2.5 mg/kg-day.
In the case of `Cc1cc(S(=O)(=O)[O-])c(N)cc1Cl.[Na+]`, the NOEL (subchronic, gavage, M, Sprague-Dawley, Food Consumption: increase + Urinalysis: pH decrease + Absolute Organ Weight: Kidney increase + Relative Organ Weight: Kidney increase) was 300 mg/kg-day.
In the case of `CC(C)(C1CCC(O)CC1)C1CCC(O)CC1` (stereo unspecified) [4,4'-Propane-2,2-diyldicyclohexanol], for the setting “subchronic, gavage, M, Sprague-Dawley, Hematology: APTT increase, PT increase + Blood Chemistry: TG increase, TP increase, Ca increasegamma-GTP increase, Glu decrease, Cho …”, the NOEL worked out at 20 mg/kg-day.
On to `c1ccc(Nc2ccc3ccccc3c2)cc1` [N-Phenyl-2-naphthylamine], for which the NOEL (subchronic, duration: 13 weeks, diet, M/F, Fischer 344, Deaths + Clinical Observation: Rough coats + Body Weight Changes: decrease + Absolute Organ Weight: Liver increase + Relative Organ Weight…) turned out to be 240 mg/kg-day.
`S=c1[nH]c2ccccc2[nH]1` [2-Mercaptobenzimidazole]: the NOEL (short-term, duration: 28 days, gavage, M/F, Wistar, Body Weight Changes: decrease + Food Consumption: decrease + Hematology: Hct decrease, Plt decrease, WBC decrease, APTT increase + Blood …) was below 2 mg/kg-day.
In the case of `BrC1CCC(Br)C(Br)CCC1Br` (stereo unspecified) [1,2,5,6-Tetrabromocyclooctane], for the setting “subchronic, gavage, M, Sprague-Dawley, Food Consumption: decrease, R (recovery day3) + Blood Chemistry: TP increase, Alb increase + Absolute Organ Weight: Liver increase + …”, the NOEL is below 40 mg/kg-day.
Turning to `ClCc1ccc(-c2ccc(CCl)cc2)cc1` [4,4'-Bis(chloromethyl)-1,1'-biphenyl], the NOEL (subchronic, gavage, Sprague-Dawley) was 1000 mg/kg-day.
For `CCC(C)(C)OC` [tert-Amyl methyl ether], for the setting “short-term, duration: 29 days, gavage, M/F, Sprague-Dawley, Deaths + Clinical Observation: Rales Anogenital staining + Body Weight Changes: Mean body weight decrease + Food Consumption: decrease + …”, the NOAEL was found to be 125 mg/kg-day.
For `O=C(c1ccc(Cl)cc1)c1ccccc1Cl` [2,4'-Dichlorobenzophenone], where the note is “subchronic, gavage, M, Sprague-Dawley, Clinical Observation: Salivation (transient) + Functional Observational Battery: Salivation + Body Weight Changes: Gain decrease(trend) + …”, the NOEL worked out at 40 mg/kg-day.
On to `CCCCCCCCCCCCC(C(=O)OC)S(=O)(=O)[O-].[Na+]` (stereo unspecified) [Sodium 1-methoxy-1-oxotetradecane-2-sulfonate], for which the NOEL worked out at 249 mg/kg-day (subchronic, diet, F, Crj: CD (SD), Blood Chemistry: TG decrease + Absolute Organ Weight: Testis increase + Relative Organ Weight: Testis increase); 0.3% (subchronic, diet, M/F, Crj: CD (SD), Blood Chemistry: TG decrease + Absolute Organ Weight: Testis increase + Relative Organ Weight: Testis increase); 175 mg/kg-day (subchronic, diet, M, Crj: CD (SD), Blood Chemistry: TG decrease + Absolute Organ Weight: Testis increase + Relative Organ Weight: Testis increase).
In the case of `COCCC(=O)OC` [Methyl 3-methoxypropionate], under “subchronic, duration: 42 days, gavage, M, Sprague-Dawley, Clinical Observation: Salivation + Food Consumption: decrease + Urinalysis: Volume increasep H decrease + Hematology: Mono increase + Blood …”, the NOEL came out at 62.5 mg/kg-day.
As to `CC/C=C\CCOC(C)=O` [(3Z)-3-Hexenyl acetate], under setting [3], the NOAEL was 1000 mg/kg-day and the NOEL came to 300 mg/kg-day.
As for `NCCS(=O)(=O)O` [l-Taurine], under setting [4], the LOEL amounted to 1000 mg/kg-day, the NOAEL was 1000 mg/kg-day and the NOEL is 300 mg/kg-day.
Regarding `[Cl][Sn][Cl]` [Stannous chloride], where the note is “subchronic, duration: 13 weeks, diet, M/F, Fischer 344, Body Weight Changes: decrease”, the NOEL came out at 365 mg/kg-day.
`O=[N+]([O-])C(Br)(CO)CO` [Bronopol]: under setting [5], the LOEL was 30 mg/kg-day and the NOEL amounted to 10 mg/kg-day. Further, under setting [6], the LOEL is 90 mg/kg-day and the NOEL amounted to 30 mg/kg-day.
With `COC(=O)CCCC(=O)OC` [Dimethyl glutarate], where the note is “subchronic, duration: 42 days, gavage, M, CD(SD), Urinalysis: pH decrease(trend) + Histopathology: Stomach-Hyperplasia, squamous, limiting ledge”, the NOAEL came out at 300 mg/kg-day.
